Patent US9212163B2, “Pesticidal compositions and processes related thereto” (Dow AgroSciences LLC, priority 2012, dated 2015)

The molecules below were run on Beet Armyworm (BAW) (Spodoptera exigua) (assay: Bioassay on Beet Armyworm (BAW), 128-well diet tray assay). Details: Table 3: Assay Results Part 1.
Assay type: in vivo
How it was run: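 Artificial diet treated with 50 μg/cm^2 compound in 90:10 acetone-water was dried, then one to five second-instar larvae were placed per well, eight wells per compound. Trays were held at 25° C., 14:10 light-dark for five to seven days, and percent mortality averaged across wells.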

SMILES | BAW Rating
O=C(NC1CCN(C(=O)CC(F)(F)F)CC1)c1ccc(/C=C/C(c2cc(Cl)c(Cl)c(Cl)c2)C(F)(F)F)cc1Br (stereo not shown) [AC104, (E)-2-Bromo-4-(4,4,4-trifluoro-3-(3,4,5-trichlorophenyl)but-1-en-1-yl)-N-(1-(3,3,3-trifluoropropanoyl)piperidin-4-yl)benzamide] | A (50-100)
CCc1cc(/C=C/C(c2cc(Cl)c(F)c(Cl)c2)C(F)(F)F)ccc1C(=O)NCc1ccc(Cl)nc1 (stereo not shown) [AC72] | A (50-100)
O=C(NCc1ccc(/C=C/C(c2cc(Cl)c(Cl)c(Cl)c2)C(F)(F)F)cc1Br)C1CC1 (stereo not shown) [CC26] | A (50-100)
Cc1cc(/C=C/C(c2cc(Cl)cc(Cl)c2)C(F)(F)F)ccc1C(=O)NCC(=O)NC1CS(=O)(=O)C1 (stereo not shown) [AC81] | A (50-100)
Cc1cc(/C=C/C(c2cc(Cl)cc(Cl)c2)C(F)(F)F)ccc1C(=O)NCc1ccccn1 (stereo not shown) [AC12] | A (50-100)
CC(=O)N1CCC(NC(=O)c2ccc(/C=C/C(c3cc(Cl)c(Cl)c(Cl)c3)C(F)(F)F)cc2Br)CC1 (stereo not shown) [AC103, (E)-N-(1-Acetylpiperidin-4-yl)-2-bromo-4-(4,4,4-trifluoro-3-(3,4,5-trichlorophenyl)but-1-en-1-yl)benzamide] | A (50-100)
O=C(NCc1ccc(/C=C/C(c2cc(Cl)cc(Cl)c2)C(F)(F)F)cc1)C1CC1 (stereo not shown) [CC2] | A (50-100)
N#Cc1cc(/C=C/C(c2cc(Cl)cc(Cl)c2)C(F)(F)F)ccc1-n1cnc([N+](=O)[O-])n1 (stereo not shown) [DC37] | A (50-100)
C=CCNC(=S)NCc1ccc(/C=C/C(c2cc(Cl)c(Cl)c(Cl)c2)C(F)(F)F)cc1Cl (stereo not shown) [CC38] | A (50-100)
N#Cc1cc(/C=C/C(c2cc(Cl)cc(Cl)c2)C(F)(F)F)ccc1-n1cnc(N)n1 (stereo not shown) [DC38] | A (50-100)
O=C(NCc1ccc(/C=C/C(c2cc(Cl)cc(Cl)c2)C(F)(F)F)cc1C(F)(F)F)C1CC1 (stereo not shown) [CC21] | A (50-100)
O=C(NCc1ccc(Cl)nc1)c1ccc(/C=C/C(c2cc(Cl)c(Cl)c(Cl)c2)C(F)(F)F)cc1Cl (stereo not shown) [AC28] | A (50-100)
O=C(NCc1ccc(/C=C/C(c2cc(Cl)c(Cl)c(Cl)c2)C(F)(F)F)cc1Cl)C1CC1 (stereo not shown) [CC11] | A (50-100)
COc1cc(/C=C/C(c2cc(Cl)c(F)c(Cl)c2)C(F)(F)F)ccc1C(=O)NC1CSC1 (stereo not shown) [AC71] | A (50-100)
O=C(Cc1ccc(Cl)nc1)NC1CCc2cc(/C=C/C(c3cc(Cl)c(F)c(Cl)c3)C(F)(F)F)ccc21 (stereo not shown) [BC9] | A (50-100)
FC(F)(F)C(/C=C/c1ccc(CNc2ccccn2)c(Cl)c1)c1cc(Cl)c(Cl)c(Cl)c1 (stereo not shown) [CC43, (E)-N-(2-Chloro-4-(4,4,4-trifluoro-3-(3,4,5-trichlorophenyl)but-1-en-1-yl)benzyl)pyridin-2-amine] | A (50-100)
Cc1cc(/C=C/C(c2cc(Cl)cc(Cl)c2)C(F)(F)F)ccc1C(=O)NCc1cnccn1 (stereo not shown) [AC43] | A (50-100)
O=C(NCc1ccc(C(F)(F)F)nc1)c1ccc(/C=C/C(c2cc(Cl)c(Cl)c(Cl)c2)C(F)(F)F)cc1Br (stereo not shown) [AC75] | A (50-100)
Cc1cc(/C=C/C(c2cc(Cl)c(F)c(Cl)c2)C(F)(F)F)ccc1C(=O)NCc1cc(Cl)ccn1 (stereo not shown) [AC77] | A (50-100)
CCNC(=S)NCc1ccc(/C=C/C(c2cc(Cl)c(Cl)c(Cl)c2)C(F)(F)F)cc1Cl (stereo not shown) [CC37, (E)-1-(2-Chloro-4-(4,4,4-trifluoro-3-(3,4,5-trichlorophenyl)but-1-en-1-yl)benzyl)-3-ethylthiourea] | A (50-100)

SMILES | BAW Rating
FC(F)(F)CNC(=S)CNC(=S)c1ccc(/C=C/C(c2cc(Cl)c(Cl)c(Cl)c2)C(F)(F)F)cc1Br (stereo not shown) [AC90, (E)-2-Bromo-N-(2-thioxo-2-((2,2,2-trifluoroethyl)amino)ethyl)-4-(4,4,4-trifluoro-3-(3,4,5-trichlorophenyl)but-1-en-1-yl)benzothioamide] | A (50-100)
Cc1cc(/C=C/C(c2cc(Cl)cc(Cl)c2)C(F)(F)F)ccc1C(=O)NCC(=O)N(C)CC(F)(F)F (stereo not shown) [AC51] | A (50-100)
O=C(NC1CCN(C2COC2)CC1)c1ccc(/C=C/C(c2cc(Cl)c(Cl)c(Cl)c2)C(F)(F)F)cc1Br (stereo not shown) [AC108, (E)-2-Bromo-N-(1-(oxetan-3-yl)piperidin-4-yl)-4-(4,4,4-trifluoro-3-(3,4,5-trichlorophenyl)but-1-en-1-yl)benzamide] | B (More than 0-Less than 50)
CC(C)(C)OC(=O)CNC(=O)c1ccc(/C=C/C(c2cc(Cl)c(Cl)c(Cl)c2)C(F)(F)F)cc1Br (stereo not shown) [AC58] | A (50-100)
Cc1cc(/C=C/C(c2cc(Cl)cc(Cl)c2)C(F)(F)F)ccc1C(=O)NCc1ccccc1 (stereo not shown) [AC11] | A (50-100)
O=C(NC1CS(=O)(=O)C1)c1ccc(/C=C/C(c2cc(Cl)c(F)c(Cl)c2)C(F)(F)F)cc1F (stereo not shown) [AC84] | A (50-100)
Cc1cc(/C=C/C(c2cc(Cl)cc(Cl)c2)C(F)(F)F)ccc1C(=O)NCc1cnc(Cl)s1 (stereo not shown) [AC15] | A (50-100)
CSCCC(=O)NCc1ccc(/C=C/C(c2cc(Cl)c(Cl)c(Cl)c2)C(F)(F)F)cc1Cl (stereo not shown) [CC19] | A (50-100)
Cc1cc(/C=C/C(c2cc(Cl)c(Cl)c(Cl)c2)C(F)(F)F)cc(C#N)c1-n1cncn1 (stereo not shown) [DC45] | A (50-100)
O=C(CNC(=O)c1ccc(/C=C/C(c2cc(Cl)c(F)c(Cl)c2)C(F)(F)F)cc1F)NCC(F)(F)F (stereo not shown) [AC68] | A (50-100)
O=C(NCc1ccc(/C=C/C(c2ccc(Cl)c(Cl)c2)C(F)(F)F)cc1Cl)C1CC1 (stereo not shown) [CC17] | A (50-100)
O=C(CC(F)(F)F)NCc1ccc(/C=C/C(c2cc(Cl)c(Cl)c(Cl)c2)C(F)(F)F)cc1 (stereo not shown) [CC6] | A (50-100)
N#Cc1cc(/C=C/C(c2cc(Cl)c(Cl)c(Cl)c2)C(F)(F)F)ccc1-n1cnc(N)n1 (stereo not shown) [DC41, (E)-2-(3-Amino-1H-1,2,4-triazol-1-yl)-5-(4,4,4-trifluoro-3-(3,4,5-trichlorophenyl)but-1-en-1-yl)benzonitrile] | A (50-100)
Cc1cc(/C=C/C(c2cc(Cl)c(F)c(Cl)c2)C(F)(F)F)ccc1C(=O)NCC(=O)NCC(F)(F)F (stereo not shown) [AC69] | A (50-100)
Cc1cc(/C=C/C(c2cc(Cl)cc(Cl)c2)C(F)(F)F)ccc1C(=S)NCc1ccc(Cl)nc1 (stereo not shown) [AC115, (E)-N-((6-Chloropyridin-3-yl)methyl)-4-(3-(3,5-dichlorophenyl)-4,4,4-trifluorobut-1-en-1-yl)-2-methylbenzothioamide] | A (50-100)
O=C(NC1CS(=O)(=O)C1)c1ccc(/C=C/C(c2cc(Cl)cc(Cl)c2)C(F)(F)F)cc1F (stereo not shown) [AC83, (E)-4-(3-(3,5-Dichlorophenyl)-4,4,4-trifluorobut-1-en-1-yl)-N-(1,1-dioxidothietan-3-yl)-2-fluorobenzamide] | A (50-100)
O=C(NOc1ccc(/C=C/C(c2cc(Cl)c(Cl)c(Cl)c2)C(F)(F)F)cc1)C1CC1 (stereo not shown) [CC52, (E)-N-(4-(4,4,4-Trifluoro-3-(3,4,5-trichlorophenyl)but-1-en-1-yl)phenoxy)cyclopropanecarboxamide] | A (50-100)
O=C(NCc1ccc(/C=C/C(c2cc(Cl)cc(Cl)c2)C(F)(F)F)cc1Cl)C1CC1 (stereo not shown) [CC8] | A (50-100)
Cc1cc(/C=C/C(c2cc(Cl)c(F)c(Cl)c2)C(F)(F)F)ccc1C(=O)NC1CCOCC1 (stereo not shown) [AC52] | A (50-100)
Cc1cc(/C=C/C(c2cc(Cl)cc(Cl)c2)C(F)(F)F)ccc1C(=O)NC1CS(=O)(=O)C1 (stereo not shown) [AC13] | A (50-100)
